This is an account of results in patent US12559529B2, “NPY2 receptor agonists” (Boehringer Ingelheim International GmbH, priority 2019, dated 2026).

Assay [1] deals with T1, human NPY1 receptor (Homo sapiens, UniProt P25929).
T1 construct: expressed in transfected cells; host or cells: CHO-K1
T1 sequence (P25929 1-384): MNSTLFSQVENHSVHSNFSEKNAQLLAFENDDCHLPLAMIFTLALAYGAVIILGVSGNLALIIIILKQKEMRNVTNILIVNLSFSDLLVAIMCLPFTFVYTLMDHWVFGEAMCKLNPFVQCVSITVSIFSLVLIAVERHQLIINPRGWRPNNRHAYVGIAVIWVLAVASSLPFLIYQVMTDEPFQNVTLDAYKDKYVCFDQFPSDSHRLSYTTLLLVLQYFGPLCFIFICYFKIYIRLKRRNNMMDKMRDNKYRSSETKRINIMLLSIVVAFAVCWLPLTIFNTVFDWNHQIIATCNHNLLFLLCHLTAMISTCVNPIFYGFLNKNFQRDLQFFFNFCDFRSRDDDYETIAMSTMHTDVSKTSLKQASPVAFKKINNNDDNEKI
The experiment in a line: HTRF cAMP Gi assay, hY1R. The note with it: Table 4; CHO-K1 cells. The class given is cell-based. (In general: Time-resolved FRET reads energy transfer from a long-lived donor to a nearby acceptor.)
Protocol: Briefly, the production of intracellular cAMP will generate a competition between unlabeled cAMP and exogenously added d2-cAMP for anti-cAMP antibodies conjugated to cryptate. CHO-K1 cells stably expressing the human NPY1, NPY2, NPY4 and NPY5 receptors were used with the cells brought to life from a frozen stock immediately before assay performance. 2000 cells per well were applied for all four NPY receptor subtype assays. A 384-well format was used applying a total volume of 20 μl using 5 μl cells, 2.5 μl peptide agonist, 2.5 μl forskolin and 5 μl of each of the fluorophores. […] Concentration-response evaluation of compounds was performed with 11 concentrations of agonist peptides (covering 3 decades). EC50 values were calculated by nonlinear regression using sigmoid concentration-response with variable slope.

In assay [2] the target is T2, human NPY4 receptor (Homo sapiens, UniProt P50391).
T2 construct: expressed in transfected cells; host or cells: CHO-K1
T2 sequence (P50391 whole entry): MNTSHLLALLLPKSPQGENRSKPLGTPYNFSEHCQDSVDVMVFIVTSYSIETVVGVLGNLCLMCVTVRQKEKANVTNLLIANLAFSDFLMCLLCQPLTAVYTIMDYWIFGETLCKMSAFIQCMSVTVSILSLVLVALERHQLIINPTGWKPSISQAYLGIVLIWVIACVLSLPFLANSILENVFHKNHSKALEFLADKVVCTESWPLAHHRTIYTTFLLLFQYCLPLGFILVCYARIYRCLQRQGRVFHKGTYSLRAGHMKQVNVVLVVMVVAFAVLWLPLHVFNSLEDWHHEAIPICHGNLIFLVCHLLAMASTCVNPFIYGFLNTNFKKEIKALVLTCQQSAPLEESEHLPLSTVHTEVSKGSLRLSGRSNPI
The experiment in a line: HTRF cAMP Gi assay, hY4R. The format is cell-based. The note with it: Table 4; CHO-K1 cells.
Description: (§1) The Homogenous Time Resolved fluorescence (HTRF) technology optimized for Gi coupled receptors has thoroughly been described in Cisbio cAMP Gi kit manual. Briefly, the production of intracellular cAMP will generate a competition between unlabeled cAMP and exogenously added d2-cAMP for anti-cAMP antibodies conjugated to cryptate. CHO-K1 cells stably expressing the human NPY1, NPY2, NPY4 and NPY5 receptors were used with the cells brought to life from a frozen stock immediately before assay performance. 2000 cells per well were applied for all four NPY receptor subtype assays. A 384-well format was used applying a total volume of 20 μl using 5 μl cells, 2.5 μl peptide agonist, 2.5 μl forskolin and 5 μl of each of the fluorophores. […] Concentration-response evaluation of compounds was performed with 11 concentrations of agonist peptides (covering 3 decades). EC50 values were calculated by nonlinear regression using sigmoid concentration-response with variable slope.

Assay [3] deals with normal NMRI mice. The experiment in a line: Effect on acute food intake in normal NMRI mice. As to conditions: male NMRI mice, 10 nmol/kg subcutaneously once. The class given is in vivo. Put shortly:
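A single 10 nmol/kg s.c. peptide dose was given 1 h before lights-off to male NMRI mice fasted from 6 h before the night phase (n=7-8). Intake was recorded continuously by microchip-identified HM-2 feeding channels. Values are normalized to vehicle controls (50 mM phosphate buffer pH7 with 5% Mannitol).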

For assay [4], the target named is T3, human NPY2 receptor (Homo sapiens, UniProt P49146).
T3 sequence (P49146 1-381): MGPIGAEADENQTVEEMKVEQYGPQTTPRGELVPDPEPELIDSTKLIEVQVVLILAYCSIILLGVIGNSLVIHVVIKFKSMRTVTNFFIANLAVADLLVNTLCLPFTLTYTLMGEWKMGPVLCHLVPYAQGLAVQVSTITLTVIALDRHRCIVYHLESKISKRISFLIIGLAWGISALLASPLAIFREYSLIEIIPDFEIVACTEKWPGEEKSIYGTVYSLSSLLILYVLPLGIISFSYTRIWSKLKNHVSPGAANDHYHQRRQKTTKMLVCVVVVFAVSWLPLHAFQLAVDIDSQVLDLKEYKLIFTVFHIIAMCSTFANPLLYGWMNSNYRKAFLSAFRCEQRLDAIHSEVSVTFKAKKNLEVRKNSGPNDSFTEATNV
Kind of assay: HTRF cAMP Gi assay, hY2R.

The target in assay [5] is T4, human NPY5 receptor (Homo sapiens, UniProt Q15761).
T4 sequence (Q15761 1-445): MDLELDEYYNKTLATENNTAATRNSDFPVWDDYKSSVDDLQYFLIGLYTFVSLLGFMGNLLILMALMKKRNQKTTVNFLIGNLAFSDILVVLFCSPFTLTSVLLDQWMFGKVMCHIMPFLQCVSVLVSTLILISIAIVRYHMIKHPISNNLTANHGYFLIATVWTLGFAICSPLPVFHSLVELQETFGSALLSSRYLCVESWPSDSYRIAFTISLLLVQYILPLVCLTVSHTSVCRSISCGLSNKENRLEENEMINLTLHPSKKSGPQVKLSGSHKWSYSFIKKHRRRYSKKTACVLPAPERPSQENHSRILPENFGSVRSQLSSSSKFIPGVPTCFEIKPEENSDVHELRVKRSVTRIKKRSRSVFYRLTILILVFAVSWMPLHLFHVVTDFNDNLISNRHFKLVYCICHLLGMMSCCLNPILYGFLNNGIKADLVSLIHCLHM
Kind of assay: HTRF cAMP Gi assay, hY5R.
Description: as §1

Assay [6] deals with T5, Human Neuropeptide Y2 Receptor (Homo sapiens, UniProt P49146).
T5 construct: purchased CHEMICON HTS066M
T5 sequence (P49146 1-381): T3 sequence (P49146 1-381)
The experiment in a line: Radioligand binding competition assay (RLB). The note with it: Table 3; human 125I-PYY (1-36) 0.02 nM, Y2 receptor membranes; read-out: Ki. The essentials: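 Competition binding at commercial human NPY Y2 membrane preparations, 0.5 μg protein per well, 2 h incubation at room temperature. Bound and free ligand were separated on GF/C filters and counted; IC50 was fitted by nonlinear regression.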

The EC50 is the concentration needed to bring the measured effect to its halfway point. A lower EC50 goes with higher potency in that assay. Consider `CC[C@H](C)[C@H](NC(=O)[C@H](CCC(=O)O)NC(=O)[C@H](CCC(=O)O)NC(=O)[C@@H]1CCCN1C(=O)[C@H](CO)NC(=O)[C@H](C)NC(=O)[C@H](CC(=O)O)NC(=O)[C@H](CCC(=O)O)NC(=O)[C@H](CCC(=O)O)NC(=O)[C@@H]1CCCN1C(=O)[C@H](CCCCNC(=O)COCCOCCNC(=O)COCCOCCNC(=O)CC[C@H](NC(=O)CCCCCCCCCCCCCCCCC(=O)O)C(=O)O)NC(=O)[C@H](CCC(=O)O)NC(=O)[C@@H]1CCCN1C(=O)[C@H](C)NC(=O)CC(C)C)C(=O)N[C@@H](CCC(N)=O)C(=O)N[C@@H](CCC(N)=O)C(=O)N[C@@H](Cc1ccc(O)cc1)C(=O)N[C@@H](Cc1ccc(O)cc1)C(=O)N[C@H](C(=O)N[C@@H](CO)C(=O)N[C@@H](CC(C)C)C(=O)N[C@@H](CCCNC(=N)N)C(=O)N[C@@H](Cc1c[nH]cn1)C(=O)N[C@@H](Cc1ccc(O)cc1)C(=O)N[C@@H](Cc1ccc(O)cc1)C(=O)N[C@@H](CC(N)=O)C(=O)N[C@@H](Cc1c[nH]c2ccccc12)C(=O)N[C@@H](CC(C)C)C(=O)N[C@H](C(=O)N[C@@H](CCCNC(=N)N)C(=O)N[C@@H](CCC(N)=O)C(=O)N[C@@H](CCCNC(=N)N)C(=O)N[C@@H](Cc1ccc(O)cc1)C(N)=O)[C@@H](C)O)C(C)C` [Compound 11, N{alpha-4}-(3-methylbutanoyl)-N{epsilon-7}-[2-(2-{2-[2-(2-{2-[(4S)-4-carboxy-4-(17-carboxyheptadecanamido)butanamido]ethoxy}ethoxy)acetamido]ethoxy}ethoxy)acetamido]-[4A,7K,9E,17I,18Q,19Q,22V,28Y,30W,31L]hPYY (4-36)], for which the EC50 was greater than 5000 nM in assay [1], greater than 5000 nM in assay [2], 0.334 nM in assay [4] and greater than 5000 nM in assay [5]. For the same molecule, in assay [3], the “Acute Food Intake 24 h [% vehicle]” value came to 42 % vehicle.
The term Ki denotes the equilibrium dissociation constant of an inhibitor or competing ligand from its target. For `CC(C)CC(=O)N[C@@H](C)C(=O)N1CCC[C@H]1C(=O)N[C@@H](CCC(=O)O)C(=O)N[C@@H](CCCCNC(=O)COCCOCCNC(=O)COCCOCCNC(=O)CC[C@H](NC(=O)CCCCCCCCCCCCCCCCC(=O)O)C(=O)O)C(=O)N1CCC[C@H]1C(=O)N[C@@H](CCC(=O)O)C(=O)N[C@@H](CCC(=O)O)C(=O)N[C@@H](CC(=O)O)C(=O)N[C@@H](C)C(=O)N[C@@H](CCC(=O)O)C(=O)N1CCC[C@H]1C(=O)N[C@@H](CCC(=O)O)C(=O)N[C@@H](CCC(=O)O)C(=O)N[C@@H](CC(C)C)C(=O)N[C@@H](CCC(N)=O)C(=O)N[C@@H](CCC(N)=O)C(=O)N[C@@H](Cc1ccc(O)cc1)C(=O)N[C@@H](Cc1ccc(O)cc1)C(=O)N[C@H](C(=O)N[C@@H](CO)C(=O)N[C@@H](CC(C)C)C(=O)N[C@@H](CCCNC(=N)N)C(=O)N[C@@H](Cc1c[nH]cn1)C(=O)N[C@@H](Cc1ccc(O)cc1)C(=O)N[C@@H](Cc1ccc(O)cc1)C(=O)N[C@@H](CC(N)=O)C(=O)N[C@@H](Cc1c[nH]c2ccccc12)C(=O)N[C@@H](CC(C)C)C(=O)N[C@H](C(=O)N[C@@H](CCCNC(=N)N)C(=O)N[C@@H](CCC(N)=O)C(=O)N[C@@H](CCCNC(=N)N)C(=O)N[C@@H](Cc1ccc(O)cc1)C(N)=O)[C@@H](C)O)C(C)C` [Compound 18, N{alpha-4}-(3-methylbutanoyl)-N{epsilon-7}-[2-(2-{2-[2-(2-{2-[(4S)-4-carboxy-4-(17-carboxyheptadecanamido)butanamido]ethoxy}ethoxy)acetamido]ethoxy}ethoxy)acetamido]-[4A,7K,9E,13E,18Q,19Q,22V,28Y,30W,31L]hPYY (4-36)], the Ki in assay [6] was 3.71 nM. For the same molecule, the EC50 in assay [1] was greater than 5000 nM; in assay [2], greater than 5000 nM; in assay [4], 0.167 nM; in assay [5] it was greater than 5000 nM. In addition, in assay [3], the “Acute Food Intake 24 h [% vehicle]” value is recorded as 58 % vehicle.
`CC(C)CC(=O)N[C@@H](C)C(=O)N1CCC[C@H]1C(=O)N[C@@H](CCC(=O)O)C(=O)N[C@@H](CCCCNC(=O)COCCOCCNC(=O)COCCOCCNC(=O)CC[C@H](NC(=O)CCCCCCCCCCCCCCCCC(=O)O)C(=O)O)C(=O)N1CCC[C@H]1C(=O)N[C@@H](CCC(=O)O)C(=O)N[C@@H](CCC(=O)O)C(=O)N[C@@H](CCC(=O)O)C(=O)N[C@@H](C)C(=O)N[C@H](C(=O)N1CCC[C@H]1C(=O)N[C@@H](CCC(=O)O)C(=O)N[C@@H](CCC(=O)O)C(=O)N[C@@H](CC(C)C)C(=O)N[C@@H](CCC(N)=O)C(=O)N[C@@H](CCCNC(=N)N)C(=O)N[C@@H](Cc1ccc(O)cc1)C(=O)N[C@@H](Cc1ccc(O)cc1)C(=O)N[C@H](C(=O)N[C@@H](CO)C(=O)N[C@@H](CC(C)C)C(=O)N[C@@H](CCCNC(=N)N)C(=O)N[C@@H](Cc1c[nH]cn1)C(=O)N[C@@H](Cc1ccc(O)cc1)C(=O)N[C@@H](Cc1ccc(O)cc1)C(=O)N[C@@H](CC(N)=O)C(=O)N[C@@H](Cc1c[nH]c2ccccc12)C(=O)N[C@@H](CC(C)C)C(=O)N[C@H](C(=O)N[C@@H](CCCNC(=N)N)C(=O)N[C@@H](CCC(N)=O)C(=O)N[C@@H](CCCNC(=N)N)C(=O)N[C@@H](Cc1ccc(O)cc1)C(N)=O)[C@@H](C)O)C(C)C)[C@@H](C)O` [Compound 41, N{alpha-4}-(3-methylbutanoyl)-N{epsilon-7}-[2-(2-{2-[2-(2-{2-[(4S)-4-carboxy-4-(17-carboxyheptadecanamido)butanamido]ethoxy}ethoxy)acetamido]ethoxy}ethoxy)acetamido]-[4A,7K,9E,11E,13T,18Q,22V,28Y,30W,31L]hPYY (4-36)]: the Ki in assay [6] was 3.22 nM. For the same molecule, the EC50 in assay [1] was greater than 5000 nM; in assay [2] it was greater than 5000 nM; in assay [4], 0.159 nM; in assay [5], greater than 5000 nM. For the same molecule, the “Acute Food Intake 24 h [% vehicle]” value in assay [3] was 44 % vehicle.
For `CC(C)CC(=O)N[C@@H](C)C(=O)N1CCC[C@H]1C(=O)N[C@@H](CCC(=O)O)C(=O)N[C@@H](CCCCNC(=O)COCCOCCNC(=O)COCCOCCNC(=O)CC[C@H](NC(=O)CCCCCCCCCCCCCCCCC(=O)O)C(=O)O)C(=O)N1CCC[C@H]1C(=O)N[C@@H](CCC(=O)O)C(=O)N[C@@H](CCC(=O)O)C(=O)N[C@@H](CCC(=O)O)C(=O)N[C@@H](C)C(=O)N[C@@H](CO)C(=O)N1CCC[C@H]1C(=O)N[C@@H](CCC(=O)O)C(=O)N[C@@H](CCC(=O)O)C(=O)N[C@@H](CC(C)C)C(=O)N[C@@H](CCC(N)=O)C(=O)N[C@@H](CCCNC(=N)N)C(=O)N[C@@H](Cc1ccc(O)cc1)C(=O)N[C@@H](Cc1ccc(O)cc1)C(=O)N[C@H](C(=O)N[C@@H](CO)C(=O)N[C@@H](CC(C)C)C(=O)N[C@@H](CCCNC(=N)N)C(=O)N[C@@H](Cc1c[nH]cn1)C(=O)N[C@@H](Cc1ccc(O)cc1)C(=O)N[C@@H](Cc1ccc(O)cc1)C(=O)N[C@@H](CC(N)=O)C(=O)N[C@@H](Cc1c[nH]c2ccccc12)C(=O)N[C@@H](CC(C)C)C(=O)N[C@H](C(=O)N[C@@H](CCCNC(=N)N)C(=O)N[C@@H](CCC(N)=O)C(=O)N[C@@H](CCCNC(=N)N)C(=O)N[C@@H](Cc1ccc(O)cc1)C(N)=O)[C@@H](C)O)C(C)C` [Compound 46, N{alpha-4}-(3-methylbutanoyl)-N{epsilon-7}-[2-(2-{2-[2-(2-{2-[(4S)-4-carboxy-4-(17-carboxyheptadecanamido)butanamido]ethoxy}ethoxy)acetamido]ethoxy}ethoxy)acetamido]-[4A,7K,9E,11E,18Q,22V,28Y,30W,31L]hPYY (4-36)], in assay [6], the Ki came to 3.3 nM. Further, the EC50 is greater than 5000 nM in assay [1], greater than 5000 nM in assay [2], 0.152 nM in assay [4] and greater than 5000 nM in assay [5]. Besides, the “Acute Food Intake 24 h [% vehicle]” value in assay [3] stood at 39 % vehicle.
